Counter-ions that a name gives are not always drawn.
How the values were obtained:
pan-HDAC = assay: In vitro enzyme inhibition assay - HDAC (HDAC-Glo I/II), pan-HDAC; format: biochemical
Method: 2. In Vitro Enzyme Inhibition Assay—HDAC
The effect of the compound on the enzymatic activity of pan-HDAC and two isoforms (HDAC1 and HDAC8) was examined using the HDAC-Glo I/II Assay and Screening System assay to assess the level of inhibition of HDAC protease activity and selectivity in each isoform. The proteins and detection reagents were from the HDAC-Glo™ I/II Assay and Screening System (Promega). A 1 mM stock solution of the compound was prepared in DMSO and diluted in a 5-fold gradient to create a series of 8 concentrations, and a specific volume of the highest concentration was diluted 25 times with HDAC Buffer to obtain 4× working solution of the compound. […] The 384-well plate was then read on a multifunctional microplate reader, with the Luminescence channel selected to record Luminescence values (RLU). The inhibition rate was calculated using the following formula: […]
(§1) Note: ‘Negative’ refers to the group without the inhibitor; ‘Blank’ refers to the group without the enzyme.
(§2) The IC50 value was calculated by fitting the inhibition rate by GraphPad Prism software, employing log (inhibitor) vs. response-Variable Slope (four parameters) model.

NCI-H1417 cells = assay: In vitro cell inhibition assay - H1417 cell proliferation (CellTiter-Glo); format: cell-based; details: Homo sapiens, NCI-H1417, H1417 small cell lung cancer cell proliferation
Method: 3. In Vitro Cell Inhibition Assay—H1417 Cell Proliferation
The inhibitory effect of the compounds on cell proliferation was assessed by detecting the number of viable cells using the CellTiter-Glo® reagent. […] The compounds were sequentially diluted in a 5-fold concentration gradient with DMSO to obtain 8 different concentrations o. These were diluted with BEGM (containing 10% FBS) cell culture medium to obtain the compound working solution (2×), which was added to the cell supernatant at 100 μL per well. The incubation continued for 7 days at 37° C., 5% CO2. The plate was then removed and equilibrated to room temperature (25° C.) along with the CellTiter-Glo® mixing reagent for 10-30 minutes. After centrifugation, 100 μL of the culture medium was carefully aspirated from each well, and 85 μL of CellTiter-Glo® reagent was added. The cells were thoroughly mixed with the CellTiter-Glo® mixing reagent using a microplate shaker for 2 min. and then incubated at room temperature for 10 min. The 96-well plate was subsequently placed on a multifunctional microplate reader to record the Luminescence values (RLU). • The inhibition rate was calculated using the following formula: […]
(§3) Note: ‘Negative’ refers to the group without inhibitors; ‘Blank’ refers to the group without cells.
(§4) The IC50 value was determined by fitting the inhibition rate by GraphPad Prism software.

LSD1 = LSD1 (Homo sapiens (Human), UniProt O60341); assay: In vitro enzyme inhibition assay - LSD1 (HTRF); format: biochemical
Method: 1. In Vitro Enzyme Inhibition Assay—LSD1
Initially, a master solution of 90 μM test compound (dissolved in DMSO) was prepared and sequentially diluted with DMSO in a 5-fold concentration gradient to yield a total of 9 concentrations of the compound working solution 1 (90×). Subsequently these 9 concentrations of working solution 1 were sequentially diluted by a 30-fold concentration gradient, i.e., 2 μL of working solution 1 was aspirated and added to 58 μL of Buffer, mixed on a vortex mixer with sufficient shaking to yield 9 concentrations of the screening test compound working solution 2 (3×). […] The mixture was incubated at room temperature for 15 minutes. […] Afterward, 2 μL of a termination solution (containing 5.4 mM 2-PCPA) was added to each well, mixed evenly, and incubated for another 15 minutes. Finally 4 μL of a pre-mixed antibody solution of Eu-anti H3K4 (PerkinElmer, TRF0404-D) and allophycocyanin (Prozyme, PJ27S) (1:1) was added to each well, mixed evenly, and incubated for 60 minutes. […] The inhibition rate was calculated through the following formula: […]
as §1, §2

NCI-H69 cells = assay: In vitro cell inhibition assay - NCI-H69 cell proliferation (CellTiter-Glo); format: cell-based; details: Homo sapiens, NCI-H69, H69 small cell lung cancer cell proliferation
Method: 4. In Vitro Cell Inhibition Assay—NCI-H69 Cell Proliferation
The inhibitory effect of the compounds on cell proliferation was assessed by detecting the number of viable cells using the CellTiter-Glo® reagent. NCI-H69 cells in the logarithmic growth phase were collected and inoculated into transparent bottom 96-well plates at a density 1×10^3 cells per well with 100 μL medium, and incubated at 37° C., 5% CO2 overnight. The compounds were sequentially diluted in a 5-fold concentration gradient with DMSO to obtain 8 different concentrations These were then diluted with RPMI-640 (containing 20% FBS) cell culture medium to obtain the compounds working solution (2×), which was added to the cell supernatant at 100 μL per well. The incubation continued for 7 days at 37° C., 5% CO2. The plate was then removed and equilibrated to room temperature (25° C.) along with the CellTiter-Glo® mixing reagent for 10-30 minutes. After centrifugation at 1200 rpm for 5 minutes, 120 μL of the culture medium was carefully aspirated from each well, and 60 μL of CellTiter-Glo® reagent was added. The cells were thoroughly mixed with the CellTiter-Glo® mixing reagent using a microplate shaker for 2 min. and then incubated at room temperature for 10 min. The 96-well plate was subsequently placed on a multifunctional microplate reader to record the Luminescence values (RLU).
The inhibition rate was calculated using the following formula: […]
as §3, §4

SMILES | IC50 (pan-HDAC) | IC50 (NCI-H1417 cells) | IC50 (LSD1) | IC50 (NCI-H69 cells)
N#Cc1ccc(-c2nc(N3CCC(N)CC3)cc(OCCCCCCC(=O)NO)c2-c2ccc(N)cc2)cc1F [Example 5, 7-(3-(4-Aminophenyl)-6-(4-aminopiperidin-1-yl)-2-(4-cyano-3-fluorophenyl)pyridin-4-yl)oxy)-N-hydroxyheptanamide hydrochloride] | 15 nM | 0.128 µM | – | –
N#Cc1ccc(-c2nc(N3CCC(N)CC3)cc(OCCCCCCC(=O)NO)c2-c2ccc(F)c(F)c2)cc1F [Example 6, 7-(6-(4-Aminopiperidin-1-yl)-2-(4-cyano-3-fluorophenyl)-3-(3,4-difluorophenyl)pyridin-4-yl)oxy)-N-hydroxyheptanamide hydrochloride] | 134 nM | – | 0.254 µM | –
Cc1cc(-c2c(OCCCCCCC(=O)NO)cc(N3CCC(N)CC3)nc2-c2ccc(C#N)c(F)c2)ccn1 [Example 10, 7-((6-(4-Aminopiperidin-1-yl)-2-(4-cyano-3-fluorophenyl)-2′-methyl-[3,4′-bipyridin]-4-yl)oxy)-N-hydroxyheptanamide hydrochloride] | 39 nM | – | 0.0754 µM | –
COc1ccc(-c2cnc(N3CCC(NCc4ccc(C5=C(C(=O)NO)CCC5)cc4)CC3)c(C#N)c2-c2ccc(C#N)c(F)c2)cc1O [Example 163, 2-(4-(((1-(3-Cyano-4-(4-cyano-3-fluorophenyl)-5-(3-hydroxy-4-methoxyphenyl)pyridin-2-yl)piperidin-4-yl)amino)methyl)phenyl)-N-hydroxycyclopent-1-ene-1-carboxamide formate] | – | 0.00497 µM | – | 1.4 µM
COc1ccc(-c2cnc(N3CCC(NCc4ccc(C5CC5C(=O)NO)cc4)CC3)c(C#N)c2-c2ccc(C#N)c(F)c2)cc1O (centres unmarked) [Example 167, 2-(4-((1-(3-Cyano-4-(4-cyano-3-fluorophenyl)-5-(3-hydroxy-4-methoxyphenyl)pyridin-2-yl)piperidin-4-yl)amino)methyl) phenyl)-N-hydroxycyclopropane-1-carboxamide formate] | – | 0.00039 µM | 0.00037 µM | 0.381 µM
COc1ccc(-c2cnc(N3CCC(NCc4ccc(/C=C/CC(=O)NO)cc4)CC3)c(C#N)c2-c2ccc(C#N)c(F)c2)cc1O [Example 169, (E)-4-(4-(((1-(3-Cyano-4-(4-cyano-3-fluorophenyl)-5-(3-hydroxy-4-methoxyphenyl)pyridin-2-yl)piperidin-4-yl)amino)methyl)phenyl)-N-hydroxybut-3-enamide formate] | – | 0.00233 µM | – | 0.31 µM
COc1ccc(-c2cnc(N3CCC(NCc4ccc(/C=C(\C)C(=O)NO)cc4)CC3)c(C#N)c2-c2ccc(C#N)c(F)c2)cc1O [Example 172, (E)-3-(4-(((1-(3-Cyano-4-(4-cyano-3-fluorophenyl)-5-(3-hydroxy-4-methoxyphenyl)pyridin-2-yl)piperidin-4-yl)amino)methyl)phenyl)-N-hydroxy-2-methylacrylamide formate] | – | 0.00171 µM | 0.00074 µM | 1.28 µM
COc1ccc(-c2cnc(N3CCC(NCc4ccc(OCC(=O)NO)nc4)CC3)c(C#N)c2-c2ccc(C#N)c(F)c2)cc1O [Example 174, 2-((5-(((1-(3-Cyano-4-(4-cyano-3-fluorophenyl)-5-(3-hydroxy-4-methoxyphenyl)pyridin-2-yl)piperidin-4-yl)amino)methyl)pyridin-2-yl)oxy)-N-hydroxyacetamide formate] | – | 0.00867 µM | – | 4.17 µM
O=C(/C=C/c1ccc(CNC(=O)c2cc(CN[C@@H]3C[C@H]3c3ccc(F)cc3)nc(-c3ccc(-n4cccn4)cc3)n2)cc1)NO [Example 232, 2-(4-(1H-pyrazol-1-yl)phenyl)-6-((((1R,2S)-2-(4-fluorophenyl)cyclopropyl)amino)methyl)-N-(4-((E)-3-(hydroxyamino)-3-oxoprop-1-en-1-yl)benzyl)pyrimidine-4-carboxamide formate] | – | 0.0321 µM | – | 0.16 µM
